Measurements reported in US7476670B2, “Purine derivatives, method for preparing, pharmaceutical compositions and novel use” (Aventis Pharma S.A., priority 2003, dated 2009).

What was measured:
CaCiv1 = CaCiv1 (Candida albicans, UniProt A0A1D8PH53); test: Assay for inhibition of CIV-CDK (CIV1) activity; format: biochemical
Excerpt: 1) Assay for Inhibition of CIV-CDK (CIV1) Activity
a) Preparation of the Reagents

Aspergillus fumigatus = test: Minimum inhibitory concentration in liquid medium, micro method (NCCLS M27-A); format: cell-based; settings: Aspergillus fumigatus; at least 80% inhibition of growth, read after 48-72 h at 37° C., RPMI 1640
AKT kinase = AKT kinase (Homo sapiens, UniProt P31749); test: Assay for inhibition of AKT activity; format: biochemical; settings: fluorescence polarization, ATP 80 μM; read-out: IC50s expressed as micromolar
Description: The inhibition of the kinase activity is determined by fluorescence polarization, the AKT kinase phosphorylates a peptide detected by adding an anti-phosphopeptide antibody coupled to a fluorescent label.
The assay is carried out in a final volume of 30 μl; all the reagents are prepared in a buffer: • 50 mM HEPES pH 7.5 • 0.03% triton X100 • 10 mM MgCl2 • 5% Glycerol • 1 mM DTT 10 μl of the 10-times concentrated inhibitor are added to 5 μl of enzyme (20 ng final concentration), and 5 μl of peptide (1 μM final concentration) and 10 μl of ATP (80 μM. final concentration) are added.

ZAP kinase = molecular target: T1, ZAP kinase (Homo sapiens, UniProt P43403); test: Assay for inhibition of ZAP kinase activity; format: biochemical; settings: fluorescence polarization, read-out: percentage inhibition at 20 μM
T1 construct: purchased Panvera P2782
T1 sequence (P43403 1-619): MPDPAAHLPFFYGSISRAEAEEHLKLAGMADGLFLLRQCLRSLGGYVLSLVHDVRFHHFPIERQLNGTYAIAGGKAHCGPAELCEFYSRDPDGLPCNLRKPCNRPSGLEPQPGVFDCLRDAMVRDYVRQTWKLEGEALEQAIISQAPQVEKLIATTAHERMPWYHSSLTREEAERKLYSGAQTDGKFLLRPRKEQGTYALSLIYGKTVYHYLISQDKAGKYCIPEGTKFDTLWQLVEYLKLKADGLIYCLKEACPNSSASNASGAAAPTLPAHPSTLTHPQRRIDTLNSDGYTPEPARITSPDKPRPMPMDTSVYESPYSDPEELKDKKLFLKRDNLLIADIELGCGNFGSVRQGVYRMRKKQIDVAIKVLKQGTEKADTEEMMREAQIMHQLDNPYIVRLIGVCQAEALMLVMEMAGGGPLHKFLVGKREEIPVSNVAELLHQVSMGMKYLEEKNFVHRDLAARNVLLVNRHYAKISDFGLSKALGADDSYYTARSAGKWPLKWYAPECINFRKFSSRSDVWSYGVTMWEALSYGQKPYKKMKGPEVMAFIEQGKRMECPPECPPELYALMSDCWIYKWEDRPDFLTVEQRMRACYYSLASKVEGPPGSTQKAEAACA
Description: The inhibition of the kinase activity is determined by fluorescence polarization, the ZAP kinase phosphorylates a peptide detected by adding an anti-phosphopeptide antibody coupled to a fluorescent label.
The assay is carried out in a final volume of 50 μl; all the reagents are prepared in a buffer: • 20 mM Tris/HCl pH 7.7 • 7 mM MnCl2 • 50 μM Na2VO4 5 μl of the 10-times concentrated inhibitor are added to 25 μl of enzyme (0.7 μg/ml final concentration) (Panvera ref P2782). After incubation for 5 minutes at ambient temperature, 10 μl of PolyGT (300 ng/ml final concentration) and 10 μl of ATP (0.25 μM final concentration) are added. The detection is carried out after incubation for 15 minutes at ambient temperature. • Results obtained expressed as percentage inhibition at 20 μM • Example 8 98% • Example 20 95% • Example 24 96% 7) Assay for Inhibition of Casein Kinase II Activity

GSK3beta = GSK3beta (Homo sapiens, UniProt P49841); test: Assay for inhibition of GSK3beta activity; format: biochemical; settings: [33P]ATP; read-out: IC50s expressed as micromolar
Description: The inhibition of the kinase activity is determined by measuring the phosphorylation of its substrate peptide.
The assay is carried out in a final volume of 40 μl; all the reagents are prepared in a buffer: • 50 mM HEPES pH 7.5 • 0.03% triton X100 • 10 mM MgCl2 • 5% Glycerol • 1 mM DTT 10 μl of the 10-times concentrated inhibitor are added to 5 μl of enzyme (20 ng final concentration), and 5 μl of peptide (1 μM final concentration) then 2.5 μof incubation buffer containing 16 μM ATP and 2.5 μl of radiolabeled ATP, [^33P]ATP (50 nCi) are added. After incubation for 15 minutes at ambient temperature, 10 μl of incubation buffer containing 1 μM of substrate.

Sequence of CaCiv1 (A0A1D8PH53 entry or part of it): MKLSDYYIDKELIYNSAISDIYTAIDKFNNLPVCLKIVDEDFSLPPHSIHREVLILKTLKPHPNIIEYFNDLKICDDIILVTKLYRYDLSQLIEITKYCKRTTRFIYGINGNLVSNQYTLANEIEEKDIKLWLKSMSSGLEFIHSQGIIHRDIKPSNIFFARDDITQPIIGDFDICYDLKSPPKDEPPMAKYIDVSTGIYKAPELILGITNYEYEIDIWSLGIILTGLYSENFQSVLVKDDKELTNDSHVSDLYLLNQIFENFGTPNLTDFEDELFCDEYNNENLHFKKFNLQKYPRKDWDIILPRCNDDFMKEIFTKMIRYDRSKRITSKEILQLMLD
Sequence of AKT kinase (P31749 whole entry): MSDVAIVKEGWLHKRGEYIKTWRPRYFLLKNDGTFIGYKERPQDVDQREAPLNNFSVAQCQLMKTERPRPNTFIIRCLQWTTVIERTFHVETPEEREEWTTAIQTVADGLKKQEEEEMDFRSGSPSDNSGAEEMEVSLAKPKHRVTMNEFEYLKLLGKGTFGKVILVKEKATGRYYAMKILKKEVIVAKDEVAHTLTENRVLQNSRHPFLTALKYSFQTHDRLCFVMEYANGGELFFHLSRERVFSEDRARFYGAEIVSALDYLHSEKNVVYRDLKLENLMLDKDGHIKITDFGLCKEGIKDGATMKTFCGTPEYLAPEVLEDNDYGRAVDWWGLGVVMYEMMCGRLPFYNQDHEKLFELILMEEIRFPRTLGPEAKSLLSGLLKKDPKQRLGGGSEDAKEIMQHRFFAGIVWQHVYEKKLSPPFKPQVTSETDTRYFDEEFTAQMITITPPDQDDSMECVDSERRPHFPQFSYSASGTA
Sequence of GSK3beta (P49841 whole entry, species assumed): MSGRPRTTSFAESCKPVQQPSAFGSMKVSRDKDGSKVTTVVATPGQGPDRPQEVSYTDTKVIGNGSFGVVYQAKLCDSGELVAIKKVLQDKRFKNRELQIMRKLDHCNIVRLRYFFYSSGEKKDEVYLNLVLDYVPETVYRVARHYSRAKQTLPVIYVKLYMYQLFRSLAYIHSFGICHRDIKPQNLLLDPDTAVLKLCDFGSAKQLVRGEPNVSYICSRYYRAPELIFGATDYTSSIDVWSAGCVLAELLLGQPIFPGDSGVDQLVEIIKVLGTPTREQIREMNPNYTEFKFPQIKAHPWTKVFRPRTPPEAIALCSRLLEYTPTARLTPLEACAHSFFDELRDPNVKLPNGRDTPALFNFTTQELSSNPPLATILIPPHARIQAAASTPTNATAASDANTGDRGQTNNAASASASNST

Row | SMILES | IC50 (CaCiv1) [nM] | MIC (Aspergillus fumigatus) [µg/mL] | IC50 (AKT kinase) [µM] | inhibition at 20 µM (ZAP kinase) [%] | IC50 (GSK3beta) [µM]
1 | Cl.N[C@H]1CC[C@H](Nc2nc(-n3cnc4cc(Cl)c(Cl)cc43)c3nc[nH]c3n2)CC1 [Example 8, Trans-N-[6-(5,6-dichloro-1H-benzimidazol-1-yl)-9H-purin-2-yl]-1,4-cyclohexanediamine hydrochloride] | 1300 | 32 | 0.46 | 98 | –
2 | Cl.Cl.N[C@H]1CC[C@H](Nc2nc(N3CCc4cc([N+](=O)[O-])ccc43)c3nc[nH]c3n2)CC1 [Example 30, Trans-N-[6-(2,3-dihydro-5-nitro-1H-indol-1-yl)-9H-purin-2-yl]-1,4-cyclohexanediamine dihydrochloride] | 100 | – | – | – | 1.5
